The test system of data set [1] is Escherichia coli (NCIM 2574). Nature of the data set: agar disc diffusion, zone of inhibition. The data set is classed as cell-based. The conditions noted are these: Escherichia coli, NCIM2574; E. coli; discs 6 mm, test compounds 100 µg/mL in DMSO, standards 10 µg/disc; 37°C 24 h; average of three replicates; read-out: zone of inhibition. As to the method: (§1) The in vitro antimicrobial screening effects of the compounds (3 and 5a–j) were individually tested against a panel of bacteria and fungi including Staphylococcus aureus (NCIM 5021), Bacillus subtilis (NCIM 2999), Pseudomonas aeruginosa (NCIM 5029), Escherichia coli (NCIM 2574), Candida. albicans (NCIM 3471), and Aspergillus flavus (NCIM 524). Microbial strains were cultured overnight at 37°C in nutrient and potato dextrose agar medium. All the pure microbial strains were obtained from National Chemical Laboratory (NCL), Pune, India.
(§2) The antibacterial activity of compounds was determined by agar disc diffusion method. Briefly, a suspension of tested bacterial strains was spread on the nutrient agar medium and potato dextrose agar for fungi. The discs (6 mm in diameter) impregnated with test chemicals each dissolved in concentration (100 μg/mL in DMSO) were placed on the inoculated agar and these plates were kept at 4°C for 2 h. The plate was incubated at 37°C for 24 h in case of bacteria and 48 h at 28°C in case of fungi. streptomycin (10 μg/disc) and fluconazole (10 μg/disc) were used as the standards for antibacterial and antifungal activity, respectively. All the samples were performed in triplicate and the zone of inhibition was measured in millimeters.
Background: Agar diffusion results depend on both activity and mobility in agar.

In data set [2] the test system is Staphylococcus aureus (NCIM 5021). In words: agar disc diffusion, zone of inhibition. The conditions noted are these: Staphylococcus aureus, NCIM5021; S. aureus; discs 6 mm, test compounds 100 µg/mL in DMSO, standards 10 µg/disc; 37°C 24 h; average of three replicates; read-out: zone of inhibition. The data set is classed as cell-based. The procedure:
as §1, §2

For data set [3], the system named is Aspergillus flavus (NCIM 524). Nature of the data set: agar disc diffusion, zone of inhibition. In kind it is cell-based. The conditions noted are these: Aspergillus flavus, NCIM524; A. flavus; discs 6 mm, test compounds 100 µg/mL in DMSO, standards 10 µg/disc; 28°C 48 h; average of three replicates; read-out: zone of inhibition. The procedure: as §1, §2
Data set [4] has as its system A. niger. Nature of the data set: agar disc diffusion, zone of inhibition. In kind it is cell-based. The conditions noted are these: Aspergillus niger; A. niger; discs 6 mm, test compounds 100 µg/mL in DMSO, standards 10 µg/disc; 28°C 48 h; average of three replicates; read-out: zone of inhibition. The procedure: [The procedure below names another organism; the source lists this organism under the same test.] as §1, §2

The subject of data set [5] is Pseudomonas aeruginosa (NCIM 5029). Nature of the data set: agar disc diffusion, zone of inhibition. The data set is classed as cell-based. The conditions noted are these: Pseudomonas aeruginosa, NCIM5029; P. aeruginosa; discs 6 mm, test compounds 100 µg/mL in DMSO, standards 10 µg/disc; 37°C 24 h; average of three replicates; read-out: zone of inhibition. As to the method:
as §1, §2

Data set [6] has as its system Bacillus subtilis (NCIM 2999). In words: agar disc diffusion, zone of inhibition. The conditions noted are these: Bacillus subtilis, NCIM2999; B. subtilis; discs 6 mm, test compounds 100 µg/mL in DMSO, standards 10 µg/disc; 37°C 24 h; average of three replicates; read-out: zone of inhibition. The data set is classed as cell-based. As to the method:
as §1, §2

Data set [7] in a line: superoxide radical scavenging assay (NBT, xanthine-xanthine oxidase system). The data set is classed as biochemical. The conditions noted are these: NBT reduction, pH 7.8, 560 nm, three replicates. The procedure:
Superoxide radical scavenging activity was measured as described by Kovala-Demertzi et al., (2004). The assay is based on the reduction of nitroblue tetrazolium (NBT) by superoxide ions generated by the xanthine-xanthine oxidase system (X–XO). The reaction system contained 0.2 mM xanthine and 0.6 mM NBT in 0.1 M phosphate buffer, pH 7.8. The tested compounds were dissolved in methanol. The reaction was started by addition of XO (0.07 U mL^−1), an activity which allowed to yield the absorbance change between 0.03 and 0.04 per minute, at 560 nm. The extent of NBT reduction was followed spectrophotometrically, by measuring the increase of the absorbance at 560 nm. All the experiments were replicated three times. The IC50 of each compound was defined as the concentration which inhibited 50% of the NBT reduction by O2 ^•− produced in the X–XO system.
Superoxide anion radical is normally initially formed, and its effects can be magnified because it produces other kinds of free radicals and oxidizing agents. The enzymatic superoxide anion radical was generated by the xanthine/xanthine oxidase reaction system. The production of superoxide was estimated by the nitroblue tetrazolium method. […] Differently, in the m-position, methoxy and hydroxyl groups act as an electron-withdrawing properties, ([…]), which are possible for providing a destabilizing effect.

A short description of data set [8]: DPPH free radical scavenging activity. The conditions noted are these: DPPH 0.1 mM, absorbance at 517 nm; triplicate, mean ± SD. The procedure:
The capacity to scavenge the stable free radical 2,2-diphenyl-1-picrylhydrazyl (DPPH) was monitored according to the Blois method. The test samples (10–100 μL) were mixed with 1 mL of DPPH (0.1 mM) solution and filled up with methanol to a final volume of 4 mL. Absorbance of the resulting solution was measured at 517 nm in a visible spectrophotometer (Model 166, Systronics, India). The free radical scavenging rate of the reaction solution was calculated as a percentage (%) of DPPH decolouration using the equation (1) I(%)=(Ablank−Asample/Ablank)×100, where A blank is the absorbance of the control reaction mixture excluding the test compounds, and A sample is the absorbance of the test compounds. Radical scavenging potential was expressed as IC50 value, which represents the sample concentration at which 50% of the DPPH radicals were scavenged. Tests were carried out in triplicate and the results were expressed as mean values ± standard deviations.
DPPH radical scavenging activity evaluation is a standard assay in antioxidant activity studies and offers a rapid technique for screening the radical scavenging activity of specific compounds [24]. The free radical scavenging activity of newly synthesized compounds was tested by their ability to bleach the stable radical DPPH. The activity was monitored by following the absorption at 517 nm in a visible spectrophotometer. In the presence of any free radical scavenger, this odd electron pairs up and causes the diminishing of absorption band which is proportional to the number of electrons taken up. The activity was studied at different concentrations for each compound. […] Resulting from a color change from purple to yellow the absorbance decreased when the antioxidant molecule can quench DPPH free radical through donation of hydrogen atom or by electron donating to form a stable DPPH molecule.

The test system of data set [9] is Escherichia coli (NCIM 2574). Nature of the data set: minimum inhibitory concentration by dilution method. The data set is classed as cell-based. The conditions noted are these: Escherichia coli, NCIM2574; E. coli; dilution method; average of three replicates; read-out: MIC. The procedure: as §1
(§3) The minimum inhibitory concentration of the synthesized compounds was determined by dilution method. The compounds were dissolved and then diluted using DMSO; two-fold serial concentrations of the compounds were employed to determine the MIC. In this method, the test concentrations of chemically synthesized compounds were made from 5 to 125 μg/mL.

In data set [10] the test system is Staphylococcus aureus (NCIM 5021). The description is as above. The data set is classed as cell-based. The conditions noted are these: Staphylococcus aureus, NCIM5021; S. aureus; dilution method; average of three replicates; read-out: MIC. As to the method:
as §1, §3

The subject of data set [11] is Aspergillus flavus (NCIM 524). The data set is described as above. The conditions noted are these: Aspergillus flavus, NCIM524; A. flavus; dilution method; average of three replicates; read-out: MIC. The data set is classed as cell-based. The procedure:
as §1, §3

In data set [12] the test system is A. niger. The description is as above. The data set is classed as cell-based. The conditions noted are these: Aspergillus niger; A. niger; dilution method; average of three replicates; read-out: MIC. The procedure: [The procedure below names another organism; the source lists this organism under the same test.] as §1, §3
Data set [13] deals with Pseudomonas aeruginosa (NCIM 5029). Described as above. The conditions noted are these: Pseudomonas aeruginosa, NCIM5029; P. aeruginosa; dilution method; average of three replicates; read-out: MIC. In kind it is cell-based. The procedure: as §1, §3
Data set [14] deals with Bacillus subtilis (NCIM 2999). Described as above. In kind it is cell-based. The conditions noted are these: Bacillus subtilis, NCIM2999; B. subtilis; dilution method; average of three replicates; read-out: MIC. As to the method:
as §1, §3

≈ marks a conversion by molar mass, not a printed value.

`CC(=O)N(C(=O)Cc1ccccc1)c1ccc(N=Cc2cc3ccccc3o2)cc1` [Compound 5b, N-acetyl-N-(4-((benzofuran-2-ylmethylene)amino)phenyl)-2-phenylacetamide]: the melting point stood at 193 °C. The zone of inhibition at 100 µg/mL in [1] stood at 10 mm. The zone of inhibition at 100 µg/mL in [2] was found to be 10 mm. In [3], the zone of inhibition at 100 µg/mL is 15 mm. Moreover, the zone of inhibition at 100 µg/mL with A. niger [4] worked out at 12 mm. Also, the zone of inhibition at 100 µg/mL in data set [5] was 11 mm. The zone of inhibition at 100 µg/mL in data set [6] was 10 mm. The “IC50 Superoxide” value in data set [7] stood at 92.0 ± 0.35 µg/mL (≈ 232 µM). In [8], the “IC50 DPPH” value was 85.3 ± 0.14 µg/mL (≈ 215 µM). In addition, in data set [9], the MIC is 50 µg/mL (≈ 126 µM). For the same compound, the MIC in data set [10] was 50 µg/mL (≈ 126 µM). Besides, the MIC in [11] amounted to 25 µg/mL (≈ 63.1 µM). Besides, the MIC with A. niger [12] is 25 µg/mL (≈ 63.1 µM). For the same compound, in data set [13], the MIC turned out to be 30 µg/mL (≈ 75.7 µM). Moreover, in data set [14], the MIC was found to be 30 µg/mL (≈ 75.7 µM).
`CC(=O)N(C(=O)c1ccc([N+](=O)[O-])cc1)c1ccc(N=Cc2cc3ccccc3o2)cc1` [Compound 5e, N-acetyl-N-(4-((benzofuran-2-ylmethylene)amino)phenyl)-4-nitrobenzamide] registered a melting point of 182 °C. The zone of inhibition at 100 µg/mL in [1] was 9 mm. Also, the zone of inhibition at 100 µg/mL in data set [2] is 14 mm. For the same compound, the zone of inhibition at 100 µg/mL in [3] came to 13.6 mm. For the same compound, in the data set with A. niger [4], the zone of inhibition at 100 µg/mL was 14.1 mm. Moreover, the zone of inhibition at 100 µg/mL in data set [5] came to 11 mm. Besides, the zone of inhibition at 100 µg/mL in data set [6] amounted to 11 mm. For the same compound, the “IC50 Superoxide” value in data set [7] is given as 79.2 ± 0.24 µg/mL (≈ 185 µM). The “IC50 DPPH” value in data set [8] is recorded as 87.4 ± 0.31 µg/mL (≈ 204 µM). Also, the MIC in data set [9] stood at 25 µg/mL (≈ 58.5 µM). In addition, the minimal inhibitory concentration (MIC) in data set [10] came to 15 µg/mL (≈ 35.1 µM). Further, in [11], the MIC is 20 µg/mL (≈ 46.8 µM). Besides, the minimal inhibitory concentration (MIC) with A. niger [12] was 20 µg/mL (≈ 46.8 µM). Besides, the minimal inhibitory concentration (MIC) in data set [13] was 25 µg/mL (≈ 58.5 µM). In addition, the MIC in [14] was found to be 15 µg/mL (≈ 35.1 µM).

The term zone of inhibition denotes the size of the clear area around the sample on an inoculated plate. The term melting point denotes the temperature of the solid-liquid transition. A word on the MIC: it is the lowest concentration found to suppress growth.

The values are drawn from PMC3767324, “Synthesis, Characterization, and BSA Binding Studies of Some New Benzamides Related to Schiff Base” (ISRN Organic Chemistry, 2013).
